Assay results as given in ChEMBL document CHEMBL1140820, “beta-N-Biaryl ether sulfonamide hydroxamates as potent gelatinase inhibitors: part 2. Optimization of alpha-amino substituents” (Bioorg Med Chem Lett, 2008).

Key:
[1] = Selectivity for MMP9 over MMP2
[2] = target: 72 kDa type IV collagenase (Homo sapiens, UniProt P08253); assay: Inhibition of MMP2
[3] = target: Matrix metalloproteinase-9 (Homo sapiens, UniProt P14780); assay: Inhibition of MMP9
Interstitial collagenase = target: T1, Interstitial collagenase (Homo sapiens, UniProt P03956); assay: Inhibition of MMP1
T1 sequence (P03956 whole entry): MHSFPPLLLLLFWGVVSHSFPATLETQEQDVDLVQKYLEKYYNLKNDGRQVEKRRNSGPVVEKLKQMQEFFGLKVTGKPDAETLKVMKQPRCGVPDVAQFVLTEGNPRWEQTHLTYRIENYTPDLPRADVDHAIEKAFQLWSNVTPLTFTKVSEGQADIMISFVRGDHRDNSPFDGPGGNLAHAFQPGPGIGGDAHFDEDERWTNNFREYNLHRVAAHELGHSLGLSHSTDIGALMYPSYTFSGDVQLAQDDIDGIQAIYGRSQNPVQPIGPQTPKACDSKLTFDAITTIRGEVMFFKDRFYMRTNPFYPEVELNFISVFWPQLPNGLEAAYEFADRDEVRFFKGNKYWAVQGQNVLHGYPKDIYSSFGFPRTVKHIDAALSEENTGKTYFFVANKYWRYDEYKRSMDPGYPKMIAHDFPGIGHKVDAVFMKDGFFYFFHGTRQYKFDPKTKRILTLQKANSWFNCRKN

[4] = Volume of distribution at steady state in rat at 0.5 mg/kg, iv; type: ADME, organism-based; set-up: dose 0.5 mg/kg, route intravenous; conditions: in vivo, read-out: Vdss
[5] = Aqueous solubility at pH 7.0; type: physicochemical
[6] = Protein binding in rat at 0.5 mg/kg, iv; type: ADME, organism-based; set-up: dose 0.5 mg/kg, route intravenous; conditions: plasma, read-out: PPB (converted)
[7] = Clearance in rat at 0.5 mg/kg, iv; type: ADME, organism-based; set-up: dose 0.5 mg/kg, route intravenous; conditions: in vivo
[8] = Metabolic stability in rat liver microsomes assessed as half life […]; type: ADME, Microsome
[9] = Cmax in rat at 0.5 mg/kg, iv; type: ADME, organism-based; set-up: dose 0.5 mg/kg, route intravenous; conditions: in vivo
[10] = Metabolic stability in human liver microsomes assessed as half life […]; type: ADME, Microsome
[11] = Aqueous solubility at pH 2.0; type: physicochemical
Rattus norvegicus = assay: Reduction of ischemia induced brain edema in Sprague-Dawley rat tMCAo model at 2 mg/kg, iv after 3 hrs; type: functional; set-up: scale not given: the % may be the effect or the level left
[12] = Apparent elimination half life in rat at 0.5 mg/kg, iv; type: ADME, organism-based; set-up: dose 0.5 mg/kg, route intravenous; conditions: in vivo, read-out: beta t1/2 (converted)
[13] = AUC in rat at 0.5 mg/kg, iv; type: ADME, organism-based; set-up: dose 0.5 mg/kg, route intravenous; conditions: plasma
Collagenase 3 = Collagenase 3 (Homo sapiens, UniProt P45452); assay: Inhibition of MMP13

72 kDa type IV collagenase, sequence (P08253 whole entry): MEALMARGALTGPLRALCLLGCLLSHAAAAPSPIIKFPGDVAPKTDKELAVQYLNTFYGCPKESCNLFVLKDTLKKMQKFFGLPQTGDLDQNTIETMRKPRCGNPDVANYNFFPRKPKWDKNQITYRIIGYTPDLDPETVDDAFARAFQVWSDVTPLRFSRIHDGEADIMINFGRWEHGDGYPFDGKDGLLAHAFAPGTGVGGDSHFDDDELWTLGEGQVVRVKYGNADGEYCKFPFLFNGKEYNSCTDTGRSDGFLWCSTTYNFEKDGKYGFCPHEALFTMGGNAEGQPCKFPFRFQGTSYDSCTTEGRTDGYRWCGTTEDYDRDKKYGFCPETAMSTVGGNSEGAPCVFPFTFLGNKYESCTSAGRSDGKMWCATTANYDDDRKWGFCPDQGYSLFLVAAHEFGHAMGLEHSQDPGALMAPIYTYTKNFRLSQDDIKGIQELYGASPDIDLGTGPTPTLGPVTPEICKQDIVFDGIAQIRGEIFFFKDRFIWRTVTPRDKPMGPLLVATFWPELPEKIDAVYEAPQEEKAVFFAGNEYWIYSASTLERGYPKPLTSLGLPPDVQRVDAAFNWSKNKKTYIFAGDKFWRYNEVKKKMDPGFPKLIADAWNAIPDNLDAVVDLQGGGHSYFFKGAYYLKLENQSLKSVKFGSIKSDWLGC
Matrix metalloproteinase-9, sequence (P14780 whole entry): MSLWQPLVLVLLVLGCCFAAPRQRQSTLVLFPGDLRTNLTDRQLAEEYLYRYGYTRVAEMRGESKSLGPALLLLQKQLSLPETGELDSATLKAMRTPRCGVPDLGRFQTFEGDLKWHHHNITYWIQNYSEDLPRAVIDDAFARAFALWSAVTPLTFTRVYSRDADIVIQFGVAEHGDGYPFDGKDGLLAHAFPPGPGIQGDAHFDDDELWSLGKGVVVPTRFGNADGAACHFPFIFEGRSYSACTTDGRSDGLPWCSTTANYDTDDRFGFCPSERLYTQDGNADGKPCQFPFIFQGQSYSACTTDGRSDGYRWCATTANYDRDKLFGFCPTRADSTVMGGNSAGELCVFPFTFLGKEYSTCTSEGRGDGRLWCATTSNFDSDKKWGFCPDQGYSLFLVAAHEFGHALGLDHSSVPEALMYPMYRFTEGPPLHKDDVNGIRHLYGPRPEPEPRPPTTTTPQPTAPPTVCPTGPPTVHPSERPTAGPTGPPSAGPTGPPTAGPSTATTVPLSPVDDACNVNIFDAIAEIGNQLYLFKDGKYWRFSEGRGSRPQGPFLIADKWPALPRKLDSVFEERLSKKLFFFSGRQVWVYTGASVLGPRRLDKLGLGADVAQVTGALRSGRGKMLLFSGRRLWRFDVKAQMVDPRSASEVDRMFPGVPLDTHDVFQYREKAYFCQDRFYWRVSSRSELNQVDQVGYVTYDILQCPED

| Compound | Ratio IC50 [1] | IC50 [2] [nM] | IC50 [3] [nM] | further results |
| --- | --- | --- | --- | --- |
| Cc1ccc(Oc2ccc(N(C[C@H](N)C(=O)NO)S(C)(=O)=O)cc2)cc1 | 5.5 |  |  |  |
| Cc1ccc(Oc2ccc(N(C[C@H](NCc3ccccn3)C(=O)NO)S(C)(=O)=O)cc2)cc1 | 3.6 |  |  |  |
| Cc1ccc(Oc2ccc(N(C[C@H](Nc3ccc4ccccc4c3)C(=O)NO)S(C)(=O)=O)cc2)cc1 | 16.6 | 1400 |  |  |
| Cc1ccc(Oc2ccc(N(C[C@H](NCc3ccccc3)C(=O)NO)S(C)(=O)=O)cc2)cc1 | 28.4 |  |  |  |
| CC(=O)N1CCN([C@@H](CN(c2ccc(Oc3ccc(C(F)(F)F)cc3)cc2)S(C)(=O)=O)C(=O)NO)CC1 | 1.8 |  |  |  |
| Cc1ccc(Oc2ccc(N(C[C@H](N[C@H](C)c3ccccc3)C(=O)NO)S(C)(=O)=O)cc2)cc1 | 16 |  | 1.5 |  |
| Cc1ccc(Oc2ccc(N(C[C@H](O)C(=O)NO)S(C)(=O)=O)cc2)cc1 |  | 61 | 7.8 |  |
| Cc1ccc(Oc2ccc(N(C[C@H](NC(C)C)C(=O)O)S(C)(=O)=O)cc2)cc1 |  | > 10000 | > 10000 | IC50 (Interstitial collagenase): > 10000 nM |
| Cc1ccc(Oc2ccc(N(C[C@H](NCc3cccnc3)C(=O)NO)S(C)(=O)=O)cc2)cc1 | 6.1 | 17 | 2.8 |  |
| Cc1ccc(Oc2ccc(N(C[C@H](NC(=O)C(C)C)C(=O)NO)S(C)(=O)=O)cc2)cc1 | 13 | 70 | 5.4 |  |
| CS(=O)(=O)N(C[C@@H](C(=O)NO)N1CCN(c2ccc(Cl)cc2)CC1)c1ccc(Oc2ccc(C(F)(F)F)cc2)cc1 | 2.7 |  |  |  |
| Cc1ccc(Oc2ccc(N(C[C@H](Nc3ccc(F)cc3)C(=O)NO)S(C)(=O)=O)cc2)cc1 | 49.2 |  | 1.3 |  |
| CS(=O)(=O)N(C[C@H](O)C(=O)NO)c1ccc(Oc2ccc(Cl)cc2)cc1 | 7.4 | 35 | 4.7 |  |
| CS(=O)(=O)N(C[C@@H](C(=O)NO)N1CCOCC1)c1ccc(Oc2ccc(Cl)cc2)cc1 | 2.8 |  |  |  |
| CS(=O)(=O)N(C[C@@H](C(=O)NO)N1CCOCC1)c1ccc(Oc2ccc(C(F)(F)F)cc2)cc1 | 3.2 |  |  | Vd [4]: 0.99 L/kg; solubility [5]: > 70 µg/mL; fraction unbound [6]: 0.26; clearance [7]: 65.4 mL/min/kg; half-life [8]: > 120 min; Cmax [9]: 860 nM; half-life [10]: > 120 min; solubility [11]: > 70 µg/mL; Activity (Rattus norvegicus): 3.3%; half-life [12]: 12 min; AUC [13]: 130 ng·h/mL |
| Cc1ccc(Oc2ccc(N(C[C@H](C(=O)NO)N3CCOCC3)S(C)(=O)=O)cc2)cc1 | 4.5 |  |  |  |
| Cc1ccc(Oc2ccc(N(C[C@H](Nc3cccc(F)c3)C(=O)NO)S(C)(=O)=O)cc2)cc1 | 59.6 |  | 0.89 | Vd [4]: 2.89 L/kg; fraction unbound [6]: 0.003; clearance [7]: 66.9 mL/min/kg; half-life [8]: < 9 min; Cmax [9]: 620 nM; half-life [10]: < 9 min; half-life [12]: 36 min; AUC [13]: 130 ng·h/mL |
| Cc1ccc(Oc2ccc(N(C[C@@H](C(=O)NO)N3C[C@@H](C)O[C@@H](C)C3)S(C)(=O)=O)cc2)cc1 | 4.1 |  |  |  |
| Cc1ccc(Oc2ccc(N(C[C@@H](NC(C)C)C(=O)NO)S(C)(=O)=O)cc2)cc1 | 5.7 | 178 | 31 |  |
| CC(C)N[C@@H](CN(c1ccc(Oc2ccc(C(F)(F)F)cc2)cc1)S(C)(=O)=O)C(=O)NO | 3.8 |  | 2.4 | IC50 (Interstitial collagenase): > 10000 nM |
| CS(=O)(=O)N(C[C@@H](C(=O)NO)N1CCC(c2ccccc2)CC1)c1ccc(Oc2ccc(C(F)(F)F)cc2)cc1 | 2.7 |  |  |  |

| Compound | Ratio IC50 [1] | IC50 [2] [nM] | IC50 [3] [nM] | further results |
| --- | --- | --- | --- | --- |
| CC(C)N(C)[C@@H](CN(c1ccc(Oc2ccc(C(F)(F)F)cc2)cc1)S(C)(=O)=O)C(=O)NO | 2.7 | 24 | 8.8 |  |
| CC(C)N(CCNC(=O)OCc1ccccc1)[C@@H](CN(c1ccc(Oc2ccc(C(F)(F)F)cc2)cc1)S(C)(=O)=O)C(=O)NO | 9 |  |  |  |
| COc1cccc(N[C@@H](CN(c2ccc(Oc3ccc(C)cc3)cc2)S(C)(=O)=O)C(=O)NO)c1 | 43.5 |  |  | IC50 (Interstitial collagenase): > 10000 nM |
| Cc1ccc(Oc2ccc(N(C[C@H](N[C@@H](C)c3ccccc3)C(=O)NO)S(C)(=O)=O)cc2)cc1 | 22.2 | 12 |  | IC50 (Interstitial collagenase): > 10000 nM |
| Cc1ccc(Oc2ccc(N(C[C@H](Nc3ccccc3)C(=O)NO)S(C)(=O)=O)cc2)cc1 | 25 | 13 | 0.52 |  |
| C[C@@H]1CN([C@@H](CN(c2ccc(Oc3ccc(Cl)cc3)cc2)S(C)(=O)=O)C(=O)NO)C[C@H](C)O1 | 5.4 | 2.5 | 0.46 |  |
| CS(=O)(=O)N(C[C@@H](C(=O)NO)N1CCCCC1)c1ccc(Oc2ccc(C(F)(F)F)cc2)cc1 | 3.3 |  | 2.3 |  |
| Cc1ccc(Oc2ccc(N(C[C@H](NC(C)C)C(=O)NO)S(C)(=O)=O)cc2)cc1 | 7.7 | 4 | 0.52 | Vd [4]: 0.49 L/kg; fraction unbound [6]: 0.16; clearance [7]: 35 mL/min/kg; half-life [8]: < 9 min; Cmax [9]: 2680 nM; half-life [10]: 49 min; half-life [12]: 9.6 min; AUC [13]: 250 ng·h/mL |
| CC(C)N(Cc1ccccc1)[C@@H](CN(c1ccc(Oc2ccc(C(F)(F)F)cc2)cc1)S(C)(=O)=O)C(=O)NO | 4.1 |  |  |  |
| Cc1ccc(Oc2ccc(N(C[C@H](Nc3cccc(Cl)c3)C(=O)NO)S(C)(=O)=O)cc2)cc1 | 16.6 |  | 20 |  |
| Cc1ccc(Oc2ccc(N(C[C@@H](C(=O)NO)N3CCOCC3)S(C)(=O)=O)cc2)cc1 | 2.7 | 5.2 | 1.9 | Vd [4]: 0.66 L/kg; solubility [5]: > 70 µg/mL; fraction unbound [6]: 0.42; clearance [7]: 12.8 mL/min/kg; half-life [8]: 10 min; Cmax [9]: 3700 nM; half-life [10]: > 120 min; solubility [11]: > 70 µg/mL; half-life [12]: 360 min; AUC [13]: 670 ng·h/mL |
| Cc1ccc(Oc2ccc(N(C[C@H](NCc3ccncc3)C(=O)NO)S(C)(=O)=O)cc2)cc1 | 5.3 |  | 1.8 |  |
| CNC(=O)C1CCN([C@@H](CN(c2ccc(Oc3ccc(C(F)(F)F)cc3)cc2)S(C)(=O)=O)C(=O)NO)CC1 | 2.2 | 5.5 | 2.5 |  |
| CS(=O)(=O)N(C[C@H](O)C(=O)NO)c1ccc(Oc2ccc(C(F)(F)F)cc2)cc1 | 9.9 | 139 | 14 | IC50 (Interstitial collagenase): > 10000 nM |
| O=C1NC(=O)C2(CCC(=O)N2c2ccc(Oc3ccc(Cl)cc3)cc2)C(=O)N1 |  |  |  | Ki [3]: 0.7 nM; Ki (Collagenase 3): 1 nM; Ki [2]: 0.4 nM |
| C[C@@H]1CN([C@@H](CN(c2ccc(Oc3ccc(C(F)(F)F)cc3)cc2)S(C)(=O)=O)C(=O)NO)C[C@H](C)O1 | 5.1 | 5.6 | 1.1 |  |
| Cc1ccc(Oc2ccc(N(C[C@H](NC3CCCC3)C(=O)NO)S(C)(=O)=O)cc2)cc1 | 5.9 |  |  |  |
| CS(=O)(=O)N(C[C@@H](C(=O)NO)N1CCC(O)CC1)c1ccc(Oc2ccc(C(F)(F)F)cc2)cc1 | 3 | 5.7 | 1.9 |  |
| CS(=O)(=O)N(C[C@@H](C(=O)NO)N1CCS(=O)(=O)CC1)c1ccc(Oc2ccc(C(F)(F)F)cc2)cc1 | 2.8 | 4.8 | 1.7 |  |
| CS(=O)(=O)N1CCN([C@@H](CN(c2ccc(Oc3ccc(C(F)(F)F)cc3)cc2)S(C)(=O)=O)C(=O)NO)CC1 | 3.1 | 9.9 | 3.2 |  |
| Cc1ccc(Oc2ccc(N(C[C@H](NCC(C)C)C(=O)NO)S(C)(=O)=O)cc2)cc1 | 8.8 | 11 | 1.3 | IC50 (Interstitial collagenase): > 10000 nM |
